From patent publication US4383113A, “Agricultural sulfonamides” (E. I. Du Pont de Nemours and Company, priority 1981, dated 1983)

Columns and labels:
cassia [1] = assay: Test A pre-emergence; type: in vivo, Cassia tora; design: key: 0 = no effect, 10 = maximum effect; letter = response symbol; conditions: 0.4 kg/ha
Method in brief: (§1)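 Seeds and tubers were treated preemergence in a growth medium with compound in a nonphytotoxic solvent, against untreated controls; emerged plants such as two-leaf barnyardgrass and five-leaf cotton were sprayed postemergence, against solvent-sprayed controls. After sixteen days in a greenhouse, response was rated visually from 0 to 10.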

cocklebur [2] = assay: Test A pre-emergence; type: in vivo, Xanthium spp.; design: key: 0 = no effect, 10 = maximum effect; letter = response symbol; conditions: 0.4 kg/ha
Method in brief: as §1

morningglory [3] = assay: Test A pre-emergence; type: in vivo, Ipomoea spp.; design: key: 0 = no effect, 10 = maximum effect; letter = response symbol; conditions: 0.4 kg/ha
Method in brief: as §1

wheat [4] = assay: Test A pre-emergence; type: in vivo; design: key: 0 = no effect, 10 = maximum effect; letter = response symbol; conditions: 0.4 kg/ha
Method in brief: as §1

soybean [5] = assay: Test A pre-emergence; type: in vivo; design: key: 0 = no effect, 10 = maximum effect; letter = response symbol; conditions: 0.4 kg/ha
Method in brief: as §1

rice [6] = assay: Test A pre-emergence; type: in vivo; design: key: 0 = no effect, 10 = maximum effect; letter = response symbol; conditions: 0.4 kg/ha
Method in brief: as §1

bush bean = assay: Test A post-emergence; type: in vivo, bush beans; design: key: 0 = no effect, 10 = maximum effect; letter = response symbol
barnyardgrass [7] = assay: Test A post-emergence; type: in vivo, Echinochloa crusgalli; design: key: 0 = no effect, 10 = maximum effect; letter = response symbol
Method in brief: as §1

morningglory [8] = assay: Test A post-emergence; type: in vivo, Ipomoea spp.; design: key: 0 = no effect, 10 = maximum effect; letter = response symbol
Method in brief: as §1

cotton = assay: Test A post-emergence; type: in vivo; design: key: 0 = no effect, 10 = maximum effect; letter = response symbol
Method in brief: as §1

wheat [9] = assay: Test A post-emergence; type: in vivo; design: key: 0 = no effect, 10 = maximum effect; letter = response symbol
Method in brief: as §1

corn [10] = assay: Test A post-emergence; type: in vivo; design: key: 0 = no effect, 10 = maximum effect; letter = response symbol
Method in brief: as §1

sorghum [11] = assay: Test A post-emergence; type: in vivo; design: key: 0 = no effect, 10 = maximum effect; letter = response symbol
Method in brief: as §1

soybean [12] = assay: Test A post-emergence; type: in vivo; design: key: 0 = no effect, 10 = maximum effect; letter = response symbol
Method in brief: as §1

rice [13] = assay: Test A post-emergence; type: in vivo; design: key: 0 = no effect, 10 = maximum effect; letter = response symbol
Method in brief: as §1

wild oats [14] = assay: Test A post-emergence; type: in vivo, Avena fatua; design: key: 0 = no effect, 10 = maximum effect; letter = response symbol
Method in brief: as §1

cassia [15] = assay: Test A post-emergence; type: in vivo, Cassia tora; design: key: 0 = no effect, 10 = maximum effect; letter = response symbol
Method in brief: as §1

crabgrass [16] = assay: Test A post-emergence; type: in vivo, Digitaria spp.
Method in brief: as §1

nutsedge [17] = assay: Test A post-emergence; type: in vivo, Cyperus rotundus; design: key: 0 = no effect, 10 = maximum effect; letter = response symbol
Method in brief: as §1

cocklebur [18] = assay: Test A post-emergence; type: in vivo, Xanthium spp.; design: key: 0 = no effect, 10 = maximum effect; letter = response symbol
Method in brief: as §1

sorghum [19] = assay: Test A pre-emergence; type: in vivo; design: key: 0 = no effect, 10 = maximum effect; letter = response symbol; conditions: 0.4 kg/ha
Method in brief: as §1

crabgrass [20] = assay: Test A pre-emergence; type: in vivo, Digitaria spp.; design: key: 0 = no effect, 10 = maximum effect; letter = response symbol; conditions: 0.4 kg/ha
Source text: (§2) The activity of these compounds was discovered in a number of greenhouse and field tests. The ratings are based on a numerical scale extending from 0=no effect, to 10=maximum effect. The accompanying descriptive symbols have the following meanings:
(§3) Seeds of crabgrass (Digitaria spp.), barnyardgrass (Echinochloa crusgalli), wild oats (Avena fatua), cassia (Cassia tora), morningglory (Ipomoea spp.), cocklebur (Xanthium spp.), sorghum, corn, soybean, rice, wheat and nutsedge tubers (Cyperus rotundus) were planted in a growth medium and treated preemergence with a nonphytotoxic solvent solution of the compounds of Table XII. Other batches of seeds and tubers for all of the foregoing weed and crop plants were planted at the same time as controls. The control plantings were untreated; i.e., neither any compound nor any solvent was applied. At the same time, cotton having five leaves (including cotyledonary ones), bush beans with the third trifoliate leaf expanding, crabgrass with two leaves, barnyardgrass with two leaves, wild oats with two leaves, cassia with three leaves (including cotyledonary ones), morningglory with four leaves (including the cotyledonary ones), cocklebur with four leaves (including the cotyledonary ones), sorghum with four leaves, corn with four leaves, soybean with two cotyledonary leaves, rice with three leaves, wheat with one leaf, and nutsedge with three-five leaves were sprayed with a nonphytotoxic solvent solution of the compounds of Table XII. Other groups of all the same weed and crop plants were sprayed with the same nonphytotoxic solvent so as to provide control plants. Preemergence and postemergence treated plants and controls were maintained in a greenhouse for sixteen days, then all treated plants were compared with their respective controls and rated visually for response to treatment.

wild oats [21] = assay: Test A pre-emergence; type: in vivo, Avena fatua; design: key: 0 = no effect, 10 = maximum effect; letter = response symbol; conditions: 0.4 kg/ha
Method in brief: as §1

barnyardgrass [22] = assay: Test A pre-emergence; type: in vivo, Echinochloa crusgalli; design: key: 0 = no effect, 10 = maximum effect; letter = response symbol; conditions: 0.4 kg/ha
Method in brief: as §1

corn [23] = assay: Test A pre-emergence; type: in vivo; design: key: 0 = no effect, 10 = maximum effect; letter = response symbol; conditions: 0.4 kg/ha
Method in brief: as §1

nutsedge [24] = assay: Test A pre-emergence; type: in vivo, Cyperus rotundus; conditions: 0.4 kg/ha
Source text: as §2, §3

## COC(=O)c1cc([N+](=O)[O-])ccc1S(=O)(=O)NC(=O)Nc1nc(C)cc(OC)n1 [drawing 529]
Cassia [1]
  response rating: 9G
Cocklebur [2]
  response rating: 9G
Morningglory [3]
  response rating: 9G
Wheat [4]
  response rating: 9G
Soybean [5]
  response rating: 9H
Rice [6]
  response rating: 9H

## COC(=O)c1ccccc1S(=O)(=O)NC(=O)Nc1nc(C)cc(C)n1 [drawing 412]
Bush bean; 0.4 kg/ha
  response rating: 9C
Bush bean; 2 kg/ha
  response rating: 9C
Barnyardgrass [7]; 0.4 kg/ha
  response rating: 10C
Barnyardgrass [7]; 2 kg/ha
  response rating: 10C
Morningglory [8]; 0.4 kg/ha
  response rating: 10C
Morningglory [8]; 2 kg/ha
  response rating: 10C
cotton; 0.4 kg/ha
  response rating: 9C
cotton; 2 kg/ha
  response rating: 9C
Wheat [9]; 0.4 kg/ha
  response rating: 9C
Wheat [9]; 2 kg/ha
  response rating: 9C
Corn [10]; 0.4 kg/ha
  response rating: 9C
Corn [10]; 2 kg/ha
  response rating: 9C
Sorghum [11]; 0.4 kg/ha
  response rating: 9C
Sorghum [11]; 2 kg/ha
  response rating: 10C
Soybean [12]; 0.4 kg/ha
  response rating: 9C
Soybean [12]; 2 kg/ha
  response rating: 6C
Rice [13]; 0.4 kg/ha
  response rating: 10C
Rice [13]; 2 kg/ha
  response rating: 10C
Wild oats [14]; 0.4 kg/ha
  response rating: 9C
Wild oats [14]; 2 kg/ha
  response rating: 9C
Cassia [15]; 0.4 kg/ha
  response rating: 9C
Cassia [15]; 2 kg/ha
  response rating: 9C
Crabgrass [16]; 0.4 kg/ha
  response rating: 9C
Crabgrass [16]; 2 kg/ha
  response rating: 9C
Nutsedge [17]; 0.4 kg/ha
  response rating: 9C
Nutsedge [17]; 2 kg/ha
  response rating: 9C
Cocklebur [18]; 0.4 kg/ha
  response rating: 10C
Cocklebur [18]; 2 kg/ha
  response rating: 9C

## COC(=O)c1cc(F)ccc1S(=O)(=O)NC(=O)Nc1nc(C)nc(OC)n1 [drawing 517]
Cassia [1]
  response rating: 9G
Morningglory [3]
  response rating: 9G
Wheat [4]
  response rating: 0
Sorghum [19]
  response rating: 9G
Soybean [5]
  response rating: 9H
Rice [6]
  response rating: 9H
Crabgrass [20]
  response rating: 5G
Wild oats [21]
  response rating: 2G

## CCCCCCCCCCCCNC(=O)c1ccccc1S(=O)(=O)NC(=O)Nc1nc(C)nc(OC)n1 [drawing 534]
Cassia [1]
  response rating: 8G
Barnyardgrass [22]
  response rating: 9H
Cocklebur [2]
  response rating: 8G
Morningglory [3]
  response rating: 9G
Wheat [4]
  response rating: 6G
Corn [23]
  response rating: 8G
Rice [6]
  response rating: 9H
Wild oats [21]
  response rating: 6G

## C=CCCC(C)OC(=O)c1ccccc1S(=O)(=O)NC(=O)Nc1nc(C)nc(OC)n1 (stereo not drawn) [drawing 522]
Nutsedge [24]
  response rating: 9G
Cassia [1]
  response rating: 9G
Cocklebur [2]
  response rating: 9G
Morningglory [3]
  response rating: 9G
Wheat [4]
  response rating: 7G
Sorghum [19]
  response rating: 9H
Soybean [5]
  response rating: 9H

## CCOCCOC(=O)c1ccccc1S(=O)(=O)NC(=O)Nc1nc(Cl)cc(Cl)n1 [drawing 520]
Cassia [1]
  response rating: 0
Morningglory [3]
  response rating: 3G
Wheat [4]
  response rating: 0
Corn [23]
  response rating: 1C
Sorghum [19]
  response rating: 8G
Soybean [5]
  response rating: 0
Rice [6]
  response rating: 8H
Crabgrass [20]
  response rating: 2G
Wild oats [21]
  response rating: 0

## COC(=O)c1cc(Cl)c(Cl)cc1S(=O)(=O)NC(=O)Nc1nc(C)cc(OC)n1 [drawing 519]
Cassia [1]
  response rating: 0
Barnyardgrass [22]
  response rating: 9G
Cocklebur [2]
  response rating: 8G
Morningglory [3]
  response rating: 8G
Wheat [4]
  response rating: 5G
Rice [6]
  response rating: 9H
Crabgrass [20]
  response rating: 2G
Wild oats [21]
  response rating: 4G

## COC(=O)c1ccccc1S(=O)(=O)NC(=O)Nc1nc(C)nc(N(C)C)n1 [drawing 472]
Bush bean; 0.4 kg/ha
  response rating: 9C
Barnyardgrass [7]; 0.4 kg/ha
  response rating: 10C
Morningglory [8]; 0.4 kg/ha
  response rating: 10C
cotton; 0.4 kg/ha
  response rating: 9C
Wheat [9]; 0.4 kg/ha
  response rating: 9C
Corn [10]; 0.4 kg/ha
  response rating: 9C
Sorghum [11]; 0.4 kg/ha
  response rating: 10C
Soybean [12]; 0.4 kg/ha
  response rating: 9C
Rice [13]; 0.4 kg/ha
  response rating: 10C
Wild oats [14]; 0.4 kg/ha
  response rating: 9C
Cassia [15]; 0.4 kg/ha
  response rating: 9C
Nutsedge [17]; 0.4 kg/ha
  response rating: 8G
Cocklebur [18]; 0.4 kg/ha
  response rating: 9C
